Data taken from US4185156A, “Peptides and acid addition salts thereof” (Zaidan Hojin Biseibutsu Kagaku Kenkyu Kai, priority 1977, dated 1980).

Assays:
[1] = system: lymphocytes from the peripheral blood of healthy canines; experiment: Lymphocyte blastoid transformation with phytohemagglutinin (PHA), 3H-Thymidine incorporation; assay type: cell-based, canines (Beagle, Male); conditions: for 3H-Td.eta. incorporation (mean cpm ± SE): PHA + compound, canine lymphocytes, 72 hrs culture; for effect on lymphocyte blastoid formation with PHA (in words): summary of table 2
Procedure: Lymphocytes were prepared asptically from the peripheral blood of healthy canines (Beagle, Male) by gradient centrifugation of ficollsodium metriazoate. The lymphocytes (1×10^6 cells/ml) were cultured in RPMI-1640 medium with 10% fetal calf serum, antibiotic (Kanamycin 60μg/ml) and 15μg of phytohemagglutinin(PHA) at 37° C. in a humidified atomosphere of 5% CO2 and 95% air. After an incubation for 48 hrs, 2μCi of ^3 H-Thymidine was added to each dish, and the culture was continued for further 24 hrs to determine DNA synthesis. DNA synthesis was measured as ^3 H-Thymidine incorporation into acid in soluble materials.

aminopeptidase B [2] = target: T1, aminopeptidase B (Rattus norvegicus, UniProt O09175); experiment: Inhibitory activity against aminopeptidase B (modified Hopsu et al. method, arginine-β-naphthylamide substrate); assay type: biochemical; conditions: pH 7.0, 37° C., 30-minute reaction
T1 construct: an aminopeptidase B solution purified by using Sephadex G-100; from tissue; rat liver in the cited Hopsu et al. method (own knowledge)
T1 sequence (O09175 1-650): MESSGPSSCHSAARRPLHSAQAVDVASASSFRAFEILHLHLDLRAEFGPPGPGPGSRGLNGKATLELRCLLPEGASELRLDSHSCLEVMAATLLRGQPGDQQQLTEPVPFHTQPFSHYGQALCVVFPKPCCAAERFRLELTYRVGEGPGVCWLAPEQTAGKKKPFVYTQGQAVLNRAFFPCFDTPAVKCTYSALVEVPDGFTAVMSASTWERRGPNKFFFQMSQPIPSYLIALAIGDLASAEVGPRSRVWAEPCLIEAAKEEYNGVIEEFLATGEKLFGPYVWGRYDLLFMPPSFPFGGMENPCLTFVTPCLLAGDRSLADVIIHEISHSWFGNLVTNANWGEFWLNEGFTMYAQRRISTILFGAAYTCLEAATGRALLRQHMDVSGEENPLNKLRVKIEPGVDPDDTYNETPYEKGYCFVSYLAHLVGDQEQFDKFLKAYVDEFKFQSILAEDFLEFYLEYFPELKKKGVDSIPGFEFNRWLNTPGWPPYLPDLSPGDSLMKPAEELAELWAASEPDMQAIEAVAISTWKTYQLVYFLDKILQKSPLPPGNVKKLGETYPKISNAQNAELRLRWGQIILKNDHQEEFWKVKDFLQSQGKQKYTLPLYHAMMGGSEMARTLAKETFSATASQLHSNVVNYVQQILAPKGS
Procedure: A modified version of the Hopsu et al. method (V. K. Hopsu, K. K. Makinen and G. G. Glenner, Archives of Biochemistry and Biophysics 114, 557 (1966)) was used for determining the aminopeptidase B activity. A mixed solution (pH 7.0) prepared by adding 1.0 ml of 0.1 M tris-hydrochloride buffer and 0.7 ml of a solution containing the specimen to 0.3 ml of 0.1 mM arginine-β-naphthylamide was heated at 37° C. for 3 minutes and then added with 0.2 ml of an aminopeptidase B solution purified by using Sephadex G-100 (trademark for gelfiltrant composed of dextran derivative, manufactured by Pharmacia Fine Chemicals Inc.) according to the enzyme purification method of Hopsu et al. After 30-minute reaction at 37° C., 0.6 ml of 1.0 M acetate buffer (pH 4.2) containing Garnet GBC (o-aminoazotoluene diazonium salt) in concentration of 1.0 mg/ml and Tween 20 in concentration of 1.0% was added, and allowing the mixture to stand at room temperature for 15 minutes, absorbance (a) at 530 nm was measured. There was also measured absorbance (b) of the control using the buffer solution not containing the specimen. The aminopeptidase B inhibition percent was calculated from (b-a)/b×100.
Inhibition percentages at various specimen concentrations were measured according to the above-said testing method, and 50% inhibition (ID50) was induced therefrom.

leucine aminopeptidase = conditions: prior art; cited from earlier work
aminopeptidase B [3] = target: T1, aminopeptidase B; conditions: prior art; cited from earlier work
Bleomycin hydrolase = target: T2, Bleomycin hydrolase (Homo sapiens, UniProt Q13867); conditions: prior art; cited from earlier work
T2 sequence (Q13867 1-455): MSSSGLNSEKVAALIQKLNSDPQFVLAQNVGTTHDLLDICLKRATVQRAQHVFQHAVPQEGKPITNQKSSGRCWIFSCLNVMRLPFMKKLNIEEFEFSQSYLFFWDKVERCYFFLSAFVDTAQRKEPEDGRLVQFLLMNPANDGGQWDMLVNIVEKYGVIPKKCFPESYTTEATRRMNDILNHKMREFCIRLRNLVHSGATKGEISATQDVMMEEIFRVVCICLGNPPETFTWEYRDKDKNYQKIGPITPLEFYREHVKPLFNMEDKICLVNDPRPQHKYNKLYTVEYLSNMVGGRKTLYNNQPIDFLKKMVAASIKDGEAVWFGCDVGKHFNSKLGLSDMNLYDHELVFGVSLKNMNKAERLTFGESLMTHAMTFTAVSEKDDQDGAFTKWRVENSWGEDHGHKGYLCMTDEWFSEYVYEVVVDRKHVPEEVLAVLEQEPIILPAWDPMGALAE

**Q.** Which “3H-Td.eta. incorporation (mean cpm ± SE)” value ([1]; dose 0.1 μg) does the source give for `N=C(N)NCCC[C@H](NC(=O)[C@@H](O)[C@H](N)Cc1ccc(O)cc1)C(=O)O` [Example 2, (2S, 3R)-3-amino-2-hydroxy-4-p-hydroxyphenylbutanoyl-(S)-arginine diacetate] here?
**A.** Its value is 23113 ± 1236 cpm.

**Q.** What about the “3H-Td.eta. incorporation (mean cpm ± SE)” value ([1]; dose 1.0 μg) of the same compound?
**A.** The value was 21357 ± 578 cpm.

**Q.** And the “3H-Td.eta. incorporation (mean cpm ± SE)” value ([1]; dose 10.0 μg)?
**A.** Its value is 20397 ± 304 cpm.

**Q.** What about the “effect on lymphocyte blastoid formation with PHA (in words)” value [1] of the same compound?
**A.** The value was “enhance the lymphocyte blastoid formation with PHA”.

**Q.** What about the “ID50 (50% inhibition of aminopeptidase B)” value (aminopeptidase B [2]) of the same compound?
**A.** Its value is 0.005 μ g/ml.

**Q.** With `CC(=O)O.CC(=O)O.Cc1ccc(CC(N)C(O)C(=O)NC(CCCN=C(N)N)C(=O)O)cc1` (racemic) [Example 3, (2RS, 3RS)-3-amino-2-hydroxy-4-p-methylphenylbutanoyl-(S)-arginine diacetate] as the compound, how does the “ID50 (50% inhibition of aminopeptidase B)” value (aminopeptidase B [2]) read?
**A.** The value was 0.013 μ g/ml.

**Q.** With `Cl.Cl.N=C(N)NCCC[C@H](NC(=O)[C@H](O)[C@H](N)Cc1ccccc1Cl)C(=O)O` (racemic) [Example 4, (2RS, 3RS)-3-amino-2-hydroxy-4-o-chlorophenylbutanoyl-(S)-arginine dihydrochloride] as the compound, how does the “ID50 (50% inhibition of aminopeptidase B)” value (aminopeptidase B [2]) read?
**A.** The value was 0.14 μ g/ml.

**Q.** Which results are given for `CC(C)C[C@H](NC(=O)[C@@H](O)[C@H](N)Cc1ccccc1)C(=O)O` [Bestatin, (2S, 3R)-3-amino-2-hydroxy-4-phenylbutanoyl-(S)-leucine, reference compound]?
**A.** inhibitory activity against leucine aminopeptidase (in words) (leucine aminopeptidase): strong inhibitory activity; inhibitory activity against aminopeptidase B (in words) (aminopeptidase B [3]): strong inhibitory activity; 3H-Td.eta. incorporation (mean cpm ± SE) ([1]; dose 0.1 μg): 19450 ± 189 cpm; 3H-Td.eta. incorporation (mean cpm ± SE) ([1]; dose 1.0 μg): 16173 ± 631 cpm; 3H-Td.eta. incorporation (mean cpm ± SE) ([1]; dose 10.0 μg): 18683 ± 71 cpm; effect on lymphocyte blastoid formation with PHA (in words) [1]: enhance the lymphocyte blastoid formation with PHA; inhibitory activity against Bleomycin hydrolase (in words) (Bleomycin hydrolase): strong inhibitory activity; IC50 (aminopeptidase B [2]; read-out: ID50 (50% inhibition of aminopeptidase B) (converted)): 324 nM

**Q.** With `Cl.N=C(N)NCCC[C@H](NC(=O)[C@@H](O)[C@H](N)Cc1ccccc1)C(=O)O` [Example 1, (2S, 3R)-3-amino-2-hydroxy-4-phenylbutanoyl-(S)-arginine hydrochloride] as the compound, how does the “3H-Td.eta. incorporation (mean cpm ± SE)” value ([1]; dose 0.1 μg) read?
**A.** Its value is 17278 ± 400 cpm.

**Q.** What about the “3H-Td.eta. incorporation (mean cpm ± SE)” value ([1]; dose 1.0 μg) of the same compound?
**A.** The value was 19940 ± 1412 cpm.

**Q.** What about the “3H-Td.eta. incorporation (mean cpm ± SE)” value ([1]; dose 10.0 μg) of the same compound?
**A.** The value was 19050 ± 1988 cpm.

**Q.** And the “effect on lymphocyte blastoid formation with PHA (in words)” value [1]?
**A.** The value was “enhance the lymphocyte blastoid formation with PHA”.

**Q.** What about the “ID50 (50% inhibition of aminopeptidase B)” value (aminopeptidase B [2]) of the same compound?
**A.** The value was 0.03 μ g/ml.
